Results from article PMC10703812, “Understanding the molecular mechanisms of odorant binding and activation of the human OR52 family” (Nature Communications, 2023).
“And” between values parts separate entries of the source, which are not always exact repeats. Identical values can stand only once.

Legend:
Experiment in all cases: cAMP signaling assay, mutant
Assay type in all cases: cell-based, human
[1] = system: OR52cs F14A / F96A / F170A
Method: (§1) For cAMP assay, CRE luciferase assay, and surface ELISA, the full-length OR52cs construct was cloned into the pcDNA3.1 vector. The Lucy signal sequence and FLAG peptide sequence were added to the N-terminus. Mutant constructs were generated by site-directed mutagenesis. For BRET assay, eYFP was added at the C-terminus of OR52cs with a GGGGS linker. Rluc was added to Gα for resonance partner (after L99 for Gαs, and I100 for Gαolf, respectively, with GGGGS linker back and forth).
(§2) Hana3A cells were seeded on 96-well white microplates and transfected with OR52cs or the corresponding mutants and cAMP sensor (Promega). The medium was exchanged with CO2-independent medium (Gibco) supplemented with 0.375 mg ml^−1 D-luciferin (Nanolight) 48 h after infection, and cells were incubated in the dark at 20 °C for 2 h. Basal luminescence was detected using a Tristar 2 LB 942 multimode reader (Berthold) until it reached a plateau. Subsequently, various concentrations of odorants and forskolin (Sigma-Aldrich) were added to each well, and luminescence was measured again. Data were analyzed and plotted using GraphPad Prism 9.4.1.

[2] = system: OR52cs G201V; settings: Fig. 3d
Method: as §1, §2

[3] = system: OR52cs H107A
Method: as §1, §2

[4] = system: OR52cs R265A
Method: as §1, §2

[5] = system: OR52cs V158F/V209M; settings: for cAMP response: Fig.S8b source data, single experiments
Method: as §1, §2

[6] = system: OR52cs F161A; parameters: cAMP response: scale not given here; settings: for cAMP response: Fig.3d source data, single experiments
Method: as §1, §2

[7] = system: OR52cs F253A; parameters: cAMP response: scale not given here; settings: for cAMP response: Fig.S13b source data, single experiments
Method: as §1, §2

[8] = system: OR52cs F261A; parameters: cAMP response: scale not given here; settings: for cAMP response: Fig.3d source data, single experiments
Method: as §1, §2

[9] = system: OR52cs H264A; parameters: cAMP response: scale not given here; settings: for cAMP response: Fig.S13b source data, single experiments
Method: as §1, §2

[10] = system: OR52cs H275A; parameters: cAMP response: scale not given here; settings: for cAMP response: Fig.S13b source data, single experiments
Method: as §1, §2

[11] = system: OR52cs I208A; parameters: cAMP response: scale not given here; settings: for cAMP response: Fig.3d source data, single experiments
Method: as §1, §2

[12] = system: OR52cs S114A; parameters: cAMP response: scale not given here; settings: for cAMP response: Fig.S13b source data, single experiments
Method: as §1, §2

[13] = system: OR52cs T110A; parameters: cAMP response: scale not given here; settings: for cAMP response: Fig.3d source data, single experiments
Method: as §1, §2

[14] = system: OR52cs Y254A; parameters: cAMP response: scale not given here; settings: for cAMP response: Fig.S13b source data, single experiments
Method: as §1, §2

[15] = system: OR52cs D212A; parameters: scale not given here; settings: Fig.S13b source data, single experiments
Method: as §1, §2

CCCCCCCC(=O)O [Octanoate, octanoic acid]
cAMP response (in words) ([1]; Fig. 2c): significantly reduced cAMP response
X-fold over OR52cs (relative fold of EC50) ([1]; Supplementary Table 3): 26.3
EC50 ([1]; Supplementary Table 3, N=3): 208 µM
downstream signaling (in words) [2]: loss of OCA signaling
downstream signaling (in words) ([3]; Fig. 3d): significantly reduced downstream signaling
X-fold over OR52cs (relative fold of EC50) ([3]; Supplementary Table 3): 23.7
EC50 ([3]; Supplementary Table 3, N=3): 187 µM
cAMP response ([3]; odorant 9.18274e-7 M, Fig.3d source data, single experiments): 2.018 and 1.83 and 1.279
downstream signaling (in words) ([4]; Fig. 3d): complete loss of downstream signaling
cAMP response ([4]; odorant 9.18274e-6 M, Fig.3d source data, single experiments): 1.026 and 1.808
response / preference (in words) ([5]; Supplementary Fig. 8): preference for OCA was maintained
cAMP response ([5]; odorant 9.18274e-8 M): 1.119% and 0.2182% and 0.3359% and 1.739%
cAMP response ([5]; odorant 9.18274e-7 M): 6.95% and 4.269% and 3.744% and 7.839% and 6.948%
cAMP response ([5]; odorant 9.18274e-6 M): 37.3813% and 30.814% and 31.4615% and 45.1116% and 40.3488%
cAMP response ([5]; odorant 3.0303e-5 M): 96.8852% and 89.0601% and 97.4121% and 90.3953% and 94.2682%
cAMP response ([5]; odorant 0.0001 M): 87.6893% and 101.186% and 102.533% and 86.5504% and 88.6049%
cAMP response ([5]; odorant 0.001 M): 79.2271% and 94.3185% and 104.414% and 103.193% and 74.9407%
X-fold over OR52cs (relative fold of EC50) ([6]; Supplementary Table 3): 5.3
EC50 ([6]; Supplementary Table 3, N=3): 42 µM
pEC50 ± SEM ([6]; Supplementary Table 3, N=3): 4.214 ± 0.075
cAMP response ([6]; odorant 3.0303e-5 M): 40.1826 and 27.0053 and 36.2901
cAMP response ([6]; odorant 0.0001 M): 77.0461 and 49.0263 and 69.6028
cAMP response ([6]; odorant 0.001 M): 102.629 and 63.8026 and 79.1192
EC50 ([7]; Supplementary Fig. 13b): 219 µM
cAMP response ([7]; odorant 9.18274e-8 M): 0.6755 and 1.259 and 1.115
cAMP response ([7]; odorant 9.18274e-7 M): 1.327 and 1.6492 and 1.457
cAMP response ([7]; odorant 9.18274e-6 M): 3.718 and 4.351 and 3.597
cAMP response ([7]; odorant 3.0303e-5 M): 11.1366 and 13.9484 and 11.2845
cAMP response ([7]; odorant 0.0001 M): 38.3735 and 42.0381 and 35.9654
cAMP response ([7]; odorant 0.001 M): 106.487 and 105.397 and 81.8862
downstream signaling (in words) ([8]; Fig. 3d): significantly reduced downstream signaling
X-fold over OR52cs (relative fold of EC50) ([8]; Supplementary Table 3): 64.0
EC50 ([8]; Supplementary Table 3, N=3): 506 µM
pEC50 ± SEM ([8]; Supplementary Table 3, N=3): 3.326 ± 1.547
cAMP response ([8]; odorant 9.18274e-7 M): 3.451 and 3.066 and 1.971
cAMP response ([8]; odorant 3.0303e-5 M): 5.756 and 6.219 and 11.0254
cAMP response ([8]; odorant 0.001 M): 66.0962 and 58.1347 and 77.5545
EC50 ([9]; Supplementary Fig. 13b): 60 µM
cAMP response ([9]; odorant 9.18274e-6 M): 4.615 and 4.081 and 4.27
cAMP response ([9]; odorant 3.0303e-5 M): 14.0038 and 11.3214 and 12.3984
cAMP response ([9]; odorant 0.0001 M): 28.5965 and 25.2729 and 26.8638
cAMP response ([9]; odorant 0.001 M): 40.8869 and 35.5267 and 36.771
EC50 ([10]; Supplementary Fig. 13b): 67 µM
cAMP response ([10]; odorant 9.18274e-7 M): 1.163 and 1.2177 and 0.8093
cAMP response ([10]; odorant 9.18274e-6 M): 12.1088 and 9.48 and 7.718
cAMP response ([10]; odorant 3.0303e-5 M): 33.8567 and 32.1825 and 24.2227
cAMP response ([10]; odorant 0.0001 M): 62.7151 and 60.5238 and 53.5809
cAMP response ([10]; odorant 0.001 M): 101.549 and 94.9309 and 77.7131
X-fold over OR52cs (relative fold of EC50) ([11]; Supplementary Table 3): 0.65
EC50 ([11]; Supplementary Table 3, N=3): 5.1 µM
pEC50 ± SEM ([11]; Supplementary Table 3, N=3): 5.321 ± 0.119
cAMP response ([11]; odorant 9.18274e-7 M): 9.649 and 7.873 and 7.984
cAMP response ([11]; odorant 9.18274e-6 M): 74.2921 and 59.9569
cAMP response ([11]; odorant 3.0303e-5 M): 118.216 and 87.9298 and 99.5696
cAMP response ([11]; odorant 0.0001 M): 123.062 and 85.14 and 99.773
cAMP response ([11]; odorant 0.001 M): 115.233 and 86.0111 and 85.4934
EC50 ([12]; Supplementary Fig. 13b): 54 µM
cAMP response ([12]; odorant 9.18274e-7 M): 0.7937 and 0.8194 and 1.08
cAMP response ([12]; odorant 9.18274e-6 M): 9.728 and 8.57 and 11.8154
cAMP response ([12]; odorant 3.0303e-5 M): 42.675 and 40.9596 and 54.3071
cAMP response ([12]; odorant 0.0001 M): 71.9561 and 66.6762 and 91.932
cAMP response ([12]; odorant 0.001 M): 103.979 and 112.532 and 126.832
X-fold over OR52cs (relative fold of EC50) ([13]; Supplementary Table 3): 2.9
EC50 ([13]; Supplementary Table 3, N=3): 22.7 µM
pEC50 ± SEM ([13]; Supplementary Table 3, N=3): 4.293 ± 0.098
cAMP response ([13]; odorant 3.0303e-5 M): 45.9718 and 31.6697 and 55.6315
cAMP response ([13]; odorant 0.0001 M): 55.3228 and 56.0506 and 78.0827
cAMP response ([13]; odorant 0.001 M): 63.5049 and 61.123 and 88.9664
EC50 ([14]; Supplementary Fig. 13b): 0.6 µM
cAMP response ([14]; odorant 9.18274e-8 M): 3.215 and 2.4896 and 3.9476
cAMP response ([14]; odorant 9.18274e-7 M): 17.867 and 17.7491 and 20.6138
cAMP response ([14]; odorant 9.18274e-6 M): 27.7636 and 29.4886 and 28.529
cAMP response ([14]; odorant 3.0303e-5 M): 29.9943 and 28.2884 and 30.9686
cAMP response ([14]; odorant 0.0001 M): 31.1114 and 30.9026 and 31.9237
cAMP response ([14]; odorant 0.001 M): 30.3248 and 30.6953 and 33.5912
cAMP response ([15]; odorant 9.18274e-6 M): 0.5276 and 0.521 and 1.015
cAMP response ([15]; odorant 3.0303e-5 M): 0.9753 and 0.9567 and 1.328
cAMP response ([15]; odorant 0.0001 M): 4.038 and 3.668 and 3.274
cAMP response ([15]; odorant 0.001 M): 42.8474 and 43.8072 and 40.1115
